The values that follow come from patent US20150335691A1, “PLANT EXTRACT OBTAINED FROM KIELMEYERA AUREOVINOSA WHICH HAS ANTIBIOTIC ACTIVITY, ISOLATED CHEMICAL COMPOUND, COMPOSITIONS COMPRISING SAME, USES THEREOF AND METHODS FOR PREVENTING AND TREATING BACTERIAL INFECTIONS” (EXTRACTA MOLÉCULAS NATURAIS S/A, priority 2011, published 2015).

For assay [1], the system named is Staphylococcus aureus. The assay is described as follows: MIC by broth microdilution against Staphylococcus aureus. The format is cell-based. The following applies: read-out: minimum inhibitory concentration (MIC).
For assay [2], the system named is strain ATCC 33591 of MRSA. The assay is described as follows: MIC by broth microdilution against MRSA. The following applies: MRSA ATCC 33591, 36° C. 48 h, Resazurin. (In general: Broth dilution looks for growth in wells or tubes with falling amounts of substance.)
Description: Pure DMSO samples are shown as zero control. […] Initial Concentration: 850 μg/mL.
The ethanol extract was dissolved in DMSO at a concentration of 10 mg/mL, from which serial dilutions were prepared (ratio 1:2) in 96-well sterile plates, geometry 12×8 wells. To each well were added 10 μL of a bacterial suspension containing approximately 7×10^6 cells/mL, prepared from the recent growth of strain ATCC 33591 of MRSA in nutrient agar. […] The experiments were performed in quadruplicate, in different periods.
Assay [3] relates to clinical isolates of Staphylococcus aureus. The following applies: pure molecule; literature value; cited from earlier work.

In brackets after ≈: the same amount, converted by molar mass.

As for `CC(C)C(=O)c1c2c(c3oc(=O)cc(-c4ccc(O)cc4)c3c1O)CC(C)(C)C=C2` [amarilin], in assay [1], the MIC is ≤ 1 µg/mL.
`Cl.O=C(O)c1cn(C2CC2)c2cc(N3CCNCC3)c(F)cc2c1=O` [hydrochloride ciprofloxacin]: the “minimum inhibitory concentration (MIC)” value in assay [2] came to 1 µg/mL.
On to `C/C(=C\C(=O)OCCCCCCCCC(=O)O)C[C@@H]1OC[C@H](C[C@@H]2O[C@H]2[C@@H](C)[C@H](C)O)[C@@H](O)[C@H]1O` [mupirocin], for which the MIC value in assay [3] is ~0.5 µg/mL (≈ 0.999 µM).
